target: T1, Human TRPC6 (Homo sapiens, UniProt Q9Y210); assay: Evaluation of TRPC6 channel inhibitory activity (1), FLIPR Calcium 5 Assay Kit, OAG stimulation (Compound Nos. 1-1293); assay type: cell-based; settings: Human TRPC6 stably-expressing cells, OAG 30 μM, FLIPR Calcium 5 Assay Kit; read-out: Inhibitory activity (pIC50 class) (converted)
T1 construct: expressed in transfected cells
T1 sequence (Q9Y210 1-931): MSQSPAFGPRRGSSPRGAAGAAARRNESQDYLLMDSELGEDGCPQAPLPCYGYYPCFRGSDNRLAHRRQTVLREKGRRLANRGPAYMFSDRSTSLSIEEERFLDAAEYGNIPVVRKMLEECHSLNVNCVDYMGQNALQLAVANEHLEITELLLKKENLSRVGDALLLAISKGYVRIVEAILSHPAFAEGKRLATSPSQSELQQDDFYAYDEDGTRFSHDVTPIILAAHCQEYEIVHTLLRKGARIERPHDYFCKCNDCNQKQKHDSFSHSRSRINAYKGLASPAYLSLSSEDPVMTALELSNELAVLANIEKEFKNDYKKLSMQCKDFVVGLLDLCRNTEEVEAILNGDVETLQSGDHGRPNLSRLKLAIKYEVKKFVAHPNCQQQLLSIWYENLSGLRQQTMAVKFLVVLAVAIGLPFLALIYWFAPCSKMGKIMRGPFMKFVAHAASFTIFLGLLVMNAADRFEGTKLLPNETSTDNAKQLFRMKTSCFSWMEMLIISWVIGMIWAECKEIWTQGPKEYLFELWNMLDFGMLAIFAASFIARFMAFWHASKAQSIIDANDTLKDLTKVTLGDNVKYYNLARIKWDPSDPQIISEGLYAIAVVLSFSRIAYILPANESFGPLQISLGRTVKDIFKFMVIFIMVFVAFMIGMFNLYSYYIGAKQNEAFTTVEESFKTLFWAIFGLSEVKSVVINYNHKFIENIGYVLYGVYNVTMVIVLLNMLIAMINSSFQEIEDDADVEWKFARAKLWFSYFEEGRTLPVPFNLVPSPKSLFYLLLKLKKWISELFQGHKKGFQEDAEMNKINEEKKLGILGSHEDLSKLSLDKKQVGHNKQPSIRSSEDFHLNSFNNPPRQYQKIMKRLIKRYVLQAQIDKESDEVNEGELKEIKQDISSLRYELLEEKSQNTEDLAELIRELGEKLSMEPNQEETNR
Procedure, shortened: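 TRPC6 (human) stable cells, 24 h culture; Ca5 no-wash dye + probenecid 30 min; cpd 20 min; OAG 30 μM final; ΔF (pre-cpd min to post-OAG max); 0%/100% = no cpd / no cpd + no OAG; 4PL → pIC50, binned +/++/+++.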

| Compound | IC50 |
| --- | --- |
| Cc1nnc(N2CCCCC2)cc1Oc1cc(C#N)ccc1-c1ncc(CN)cn1 [compound 821, 4-[5-(aminomethyl)pyrimidin-2-yl]-3-(3-methyl-6-piperidin-1-ylpyridazin-4-yl)oxybenzonitrile] | 10 to 1000 nM |
| Cn1nc(C(C)(C)C)cc1Oc1cc(C#N)ccc1-c1ccc(C(N)CO)cn1 (centres unmarked) [compound 413, 4-[5-(1-amino-2-hydroxyethyl)pyridin-2-yl]-3-(5-tert-butyl-2-methylpyrazol-3-yl)oxybenzonitrile] | < 10 nM |
| CNC(=O)C(N)c1ccc(-c2ccc(C#N)cc2Oc2cc(C3CC3)nn2C)nc1 (centres unmarked) [compound 491, 2-amino-2-[6-[4-cyano-2-(5-cyclopropyl-2-methylpyrazol-3-yl)oxyphenyl]pyridin-3-yl]-N-methylacetamide] | 10 to 1000 nM |
| Cc1nnc(N2CCCC2)cc1Oc1cc(C#N)ccc1-c1ncc(CN)cn1 [compound 824, 4-[5-(aminomethyl)pyrimidin-2-yl]-3-(3-methyl-6-pyrrolidin-1-ylpyridazin-4-yl)oxybenzonitrile] | 10 to 1000 nM |
| Cc1nc(Oc2cc(C#N)ccc2-c2ccc(C(CN)C(F)(F)F)cc2)cc(N2CCOCC2)n1 (centres unmarked) [Compound 101, 4-[4-(3-amino-1,1,1-trifluoropropan-2-yl)phenyl]-3-(2-methyl-6-morpholin-4-ylpyrimidin-4-yl)oxybenzonitrile] | < 10 nM |
| Cc1nc(Oc2cc(C#N)ccc2-n2ccc(C(O)CN)n2)cc(N2CCOCC2)n1 (centres unmarked) [Compound 144, 4-[3-(2-amino-1-hydroxyethyl)pyrazol-1-yl]-3-(2-methyl-6-morpholin-4-ylpyrimidin-4-yl)oxybenzonitrile] | 10 to 1000 nM |
| Cn1nc(C2CC2)cc1Oc1cc(C#N)ccc1-c1cc(C(=O)N2CCC[C@H](N)C2)cn2ccnc12 [compound 756, 4-[6-[(3S)-3-aminopiperidine-1-carbonyl]imidazo[1,2-a]pyridin-8-yl]-3-(5-cyclopropyl-2-methylpyrazol-3-yl)oxybenzonitrile] | > 1000 nM |
| N#Cc1ccc(-c2ncc(CN)cn2)c(Cn2cc(-c3ccccc3)nn2)c1 [compound 1168, 4-[5-(aminomethyl)pyrimidin-2-yl]-3-[(4-phenyltriazol-1-yl)methyl]benzonitrile] | 10 to 1000 nM |
| Cc1cc(Oc2cc(C#N)ccc2-c2ncc(CCN)cn2)no1 [compound 677, 4-[5-(2-aminoethyl)pyrimidin-2-yl]-3-[(5-methyl-1,2-oxazol-3-yl)oxy]benzonitrile] | > 1000 nM |
| Cn1nc(C2CC2)cc1Oc1cc(C#N)ccc1-c1nccc(CN)n1 [compound 680, 4-[4-(aminomethyl)pyrimidin-2-yl]-3-(5-cyclopropyl-2-methylpyrazol-3-yl)oxybenzonitrile] | > 1000 nM |
| Cc1nc(Oc2cc(C#N)ccc2-c2ccc(CCN)cc2)cc(N2CCCOCC2)n1 [Compound 31, 4-[4-(2-aminoethyl)phenyl]-3-[2-methyl-6-(1,4-oxazepan-4-yl)pyrimidin-4-yl]oxybenzonitrile] | 10 to 1000 nM |
| Cn1nc(-c2ccccc2)cc1Oc1cc(C#N)ccc1-c1ccc(CCN)nc1 [Compound 174, 4-[6-(2-aminoethyl)pyridin-3-yl]-3-(2-methyl-5-phenylpyrazol-3-yl)oxybenzonitrile] | < 10 nM |
| N#Cc1ccc(-c2ccc(CCN)cn2)c(Oc2nnc(C3CC3)s2)c1 [compound 718, 4-[5-(2-aminoethyl)pyridin-2-yl]-3-[(5-cyclopropyl-1,3,4-thiadiazol-2-yl)oxy]benzonitrile] | < 10 nM |
| Cc1c(Oc2cc(C#N)ccc2-c2ncc(CCN)cn2)cnn1CC(F)(F)F [compound 836, 4-[5-(2-aminoethyl)pyrimidin-2-yl]-3-[5-methyl-1-(2,2,2-trifluoroethyl)pyrazol-4-yl]oxybenzonitrile] | 10 to 1000 nM |
| Cc1cc(Oc2cc(C#N)ccc2-c2ncc(CCN)cn2)cc(N2CC3CCC(C2)O3)n1 [compound 454, 4-[5-(2-aminoethyl)pyrimidin-2-yl]-3-[2-methyl-6-(8-oxa-3-azabicyclo[3.2.1]octan-3-yl)pyridin-4-yl]oxybenzonitrile] | < 10 nM |
| Cc1nc(Oc2cc(C#N)ccc2-c2ncc(CN)cn2)cc(N2CC(F)(F)C2)n1 [compound 653, 4-[5-(aminomethyl)pyrimidin-2-yl]-3-[6-(3,3-difluoroazetidin-1-yl)-2-methylpyrimidin-4-yl]oxybenzonitrile] | 10 to 1000 nM |

| Compound | IC50 |
| --- | --- |
| Cn1nc(N2CCOCC2)cc1Oc1cc(F)ccc1-c1ccc(CCN)cn1 [compound 975, 2-[6-[4-fluoro-2-(2-methyl-5-morpholin-4-ylpyrazol-3-yl)oxyphenyl]pyridin-3-yl]ethanamine] | < 10 nM |
| Cc1nc(C(C)C)cn1Cc1cc(C#N)ccc1-c1ncc(CCN)cn1 [compound 1171, 4-[5-(2-aminoethyl)pyrimidin-2-yl]-3-[(2-methyl-4-propan-2-ylimidazol-1-yl)methyl]benzonitrile] | 10 to 1000 nM |
| Cc1nc(Oc2cc(C#N)ccc2-c2ccc([C@H](O)CN)cn2)cc(N2CCO[C@@H](C)C2)n1 [compound 558, 4-[5-[(1S)-2-amino-1-hydroxyethyl]pyridin-2-yl]-3-[2-methyl-6-[(2S)-2-methylmorpholin-4-yl]pyrimidin-4-yl]oxybenzonitrile] | 10 to 1000 nM |
| N#Cc1ccc(-c2ccc(C(O)CN)cc2)c(Oc2cnnc(N3CCOCC3)c2)c1 (centres unmarked) [Compound 51, 4-[4-(2-amino-1-hydroxyethyl)phenyl]-3-(6-morpholin-4-ylpyridazin-4-yl)oxybenzonitrile] | > 1000 nM |
| Cc1cc(Oc2cc(C#N)ccc2-c2ccnc(OCCN)c2)cc(N2CCOCC2)n1 [compound 567, 4-[2-(2-aminoethoxy)pyridin-4-yl]-3-(2-methyl-6-morpholin-4-ylpyridin-4-yl)oxybenzonitrile] | 10 to 1000 nM |
| Cc1cc(Oc2cc(C#N)ccc2-c2ncc(CNC(C)(C)C)cn2)cc(N2CCOCC2)n1 [compound 661, 4-[5-[(tert-butylamino)methyl]pyrimidin-2-yl]-3-(2-methyl-6-morpholin-4-ylpyridin-4-yl)oxybenzonitrile] | > 1000 nM |
| N#Cc1ccc(-c2ncc(CN)cn2)c(Oc2nnc(Br)s2)c1 [compound 700, 4-[5-(aminomethyl)pyrimidin-2-yl]-3-[(5-bromo-1,3,4-thiadiazol-2-yl)oxy]benzonitrile] | > 1000 nM |
| N#Cc1ccc(-c2ccc(CCN)cn2)c(Sc2cnnc(N3CCOCC3)c2)c1 [compound 1242, 4-[5-(2-aminoethyl)pyridin-2-yl]-3-(6-morpholin-4-ylpyridazin-4-yl)sulfanylbenzonitrile] | 10 to 1000 nM |
| CCc1cc(Oc2cc(C#N)ccc2-c2ncc(OCCN)cn2)n(C)n1 [compound 386, 4-[5-(2-aminoethoxy)pyrimidin-2-yl]-3-(5-ethyl-2-methylpyrazol-3-yl)oxybenzonitrile] | 10 to 1000 nM |
| Cc1nc(Oc2cc(C#N)ccc2-c2ccc(C(O)CN)cc2C)cc(N2CCOCC2)n1 (centres unmarked) [Compound 157, 4-[4-(2-amino-1-hydroxyethyl)-2-methylphenyl]-3-(2-methyl-6-morpholin-4-ylpyrimidin-4-yl)oxybenzonitrile] | < 10 nM |
| N#Cc1ccc(-c2ccc(CN)cn2)c(Oc2cnnc(C3CC3)c2)c1 [compound 695, 4-[5-(aminomethyl)pyridin-2-yl]-3-(6-cyclopropylpyridazin-4-yl)oxybenzonitrile] | < 10 nM |
| Cc1nc(NC(C)(C)C)cc(Oc2cc(C#N)ccc2-c2ncc(CN)cn2)n1 [compound 637, 4-[5-(aminomethyl)pyrimidin-2-yl]-3-[6-(tert-butylamino)-2-methylpyrimidin-4-yl]oxybenzonitrile] | < 10 nM |
| Cc1nc(C(C)C)cn1Cc1cc(C#N)ccc1-c1ncc(CN)cn1 [compound 1172, 4-[5-(aminomethyl)pyrimidin-2-yl]-3-[(2-methyl-4-propan-2-ylimidazol-1-yl)methyl]benzonitrile] | 10 to 1000 nM |
| Cc1cnc(N2CCOCC2)cc1Oc1cc(C#N)ccc1-c1ncc(CCN)cn1 [compound 902, 4-[5-(2-aminoethyl)pyrimidin-2-yl]-3-(5-methyl-2-morpholin-4-ylpyridin-4-yl)oxybenzonitrile] | 10 to 1000 nM |
| Cn1nc(C(C)(C)C)cc1C(OCC#N)c1cc(C#N)ccc1-c1ncc(CCN)cn1 (centres unmarked) [Compound No. 1237, 4-[5-(2-Aminoethyl)pyrimidin-2-yl]-3-[(5-tert-butyl-2-methylpyrazol-3-yl)-(cyanomethoxy)methyl]benzonitrile] | < 10 nM |
| N#Cc1ccc(-c2ccc(CCN)cc2)c(Oc2cc(N3CCOCC3)cnn2)c1 [Compound 145, 4-[4-(2-aminoethyl)phenyl]-3-(5-morpholin-4-ylpyridazin-3-yl)oxybenzonitrile] | 10 to 1000 nM |
